Source: BindingDB's records for doi:10.1016/j.bmc.2019.03.049 (Zhuhai Campus of Zunyi Medical University, 2019)

Molecular target: Hepatocyte growth factor receptor (Homo sapiens) (UniProt P08581)
Test: Inhibition of c-MET (unknown origin) using FAM-labelled peptide as substrate measured after 10 mins by mobility shift assay

Sequence of Hepatocyte growth factor receptor (Homo sapiens) (P08581 whole entry, looked up): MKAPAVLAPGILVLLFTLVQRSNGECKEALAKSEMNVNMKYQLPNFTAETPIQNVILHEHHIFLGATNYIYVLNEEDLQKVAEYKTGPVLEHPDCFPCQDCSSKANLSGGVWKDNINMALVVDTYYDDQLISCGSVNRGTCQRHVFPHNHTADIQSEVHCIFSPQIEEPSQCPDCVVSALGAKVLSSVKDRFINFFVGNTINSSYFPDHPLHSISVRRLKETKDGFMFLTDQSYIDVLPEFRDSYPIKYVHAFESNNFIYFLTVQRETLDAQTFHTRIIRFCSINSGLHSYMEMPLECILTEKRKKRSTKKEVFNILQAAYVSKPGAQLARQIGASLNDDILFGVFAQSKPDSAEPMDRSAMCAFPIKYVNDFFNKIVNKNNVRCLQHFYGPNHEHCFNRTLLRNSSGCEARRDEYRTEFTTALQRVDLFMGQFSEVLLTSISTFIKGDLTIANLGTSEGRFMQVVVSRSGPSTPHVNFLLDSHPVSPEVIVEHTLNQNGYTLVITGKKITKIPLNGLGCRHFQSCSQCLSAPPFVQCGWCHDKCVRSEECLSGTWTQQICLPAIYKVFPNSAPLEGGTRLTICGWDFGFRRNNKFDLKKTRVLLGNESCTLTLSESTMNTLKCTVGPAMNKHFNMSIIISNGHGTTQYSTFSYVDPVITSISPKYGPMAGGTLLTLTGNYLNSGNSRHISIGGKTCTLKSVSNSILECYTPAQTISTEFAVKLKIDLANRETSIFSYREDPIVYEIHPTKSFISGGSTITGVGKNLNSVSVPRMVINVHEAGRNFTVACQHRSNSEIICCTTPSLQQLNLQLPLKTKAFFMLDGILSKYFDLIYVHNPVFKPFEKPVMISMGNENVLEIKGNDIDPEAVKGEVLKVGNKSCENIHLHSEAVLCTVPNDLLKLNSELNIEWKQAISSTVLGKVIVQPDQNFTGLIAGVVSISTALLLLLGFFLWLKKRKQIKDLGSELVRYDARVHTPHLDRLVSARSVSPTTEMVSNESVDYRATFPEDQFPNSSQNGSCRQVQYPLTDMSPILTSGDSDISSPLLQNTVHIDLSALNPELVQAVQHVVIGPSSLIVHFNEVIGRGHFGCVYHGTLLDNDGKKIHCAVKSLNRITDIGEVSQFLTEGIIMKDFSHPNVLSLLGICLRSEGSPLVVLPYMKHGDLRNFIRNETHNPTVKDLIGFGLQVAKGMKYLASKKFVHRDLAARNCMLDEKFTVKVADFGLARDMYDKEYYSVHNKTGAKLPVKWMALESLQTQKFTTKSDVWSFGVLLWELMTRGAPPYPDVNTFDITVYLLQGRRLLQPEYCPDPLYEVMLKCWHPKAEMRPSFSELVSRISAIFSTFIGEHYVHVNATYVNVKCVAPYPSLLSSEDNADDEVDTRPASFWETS

`COc1cc2c(Oc3ccc(C4SCC(=O)N4NC(=O)Nc4ccc(F)cc4F)cc3)ccnc2cc1OCCCN1CCOCC1` (stereo not drawn) showed an IC50 of 3.35 µM.

`COc1cc2c(Oc3ccc(C4SCC(=O)N4NC(=O)Nc4ccccc4)cc3)ccnc2cc1OCCCN1CCOCC1` (stereo not drawn) showed an IC50 of 4.52 µM.

`COc1cc2c(Oc3ccc(C4SCC(=O)N4NC(=O)Nc4ccc(F)cc4)cc3)ccnc2cc1OCCCN1CCOCC1` (stereo not drawn) showed an IC50 of 4.3 µM.
